Where a SMILES comes first, the peptide text is derived from it.
Target: T1, 20S proteasomes purified from a B-LCL cell line (immunoproteasomes) (Homo sapiens, UniProt P28062+P28065+P40306)
T1 construct: 20S proteasomes were purified from a B-LCL cell line; endogenous in cells; purified after Groettrup et al. 1995
Assay: In vitro proteasome mediated cleavage analysis
Assay type: biochemical
Design: key to Intact in fragment / Intact Fragment: intact epitope found in digestion fragments: (+), present; (-), not present; key to Processing C-term: generation by proteasome-mediated digestion of fragments containing the correct C-terminus: (++) fragments present for >5%; (+) present for <5%; (-) no fragments containing the C-term. were found
Conditions: for Processing C-term: generation by proteasome-mediated digestion of fragments containing the correct C-terminus: 1 h digestion; for Intact Fragment: intact epitope found in digestion fragments: after 1 h digestion
Procedure: 20S proteasomes were purified from a B-LCL cell line as described by Groettrup et al. (J. Biol. Chem. 270:23808-23815; 1995). This cell type is known to contain immunoproteasomes. High LMP2 and 7 content was confirmed by 2-D immuno-blotting. To assess kinetics, digestions were performed with different incubation periods. Peptides (27 mers, 20 μg) were incubated with 1 μg of purified proteasome at 37° C. for 1 h, 4 h and 24 h in 300 μl proteasome digestion buffer as described (Eggers, et al. 1995. J. Exp. Med. 182:1865). Trifluoroacetic acid was added to stop the digestion and samples were stored at −20° C. before mass spectrometric analysis.
Electrospray ionization mass spectrometry was performed on a hybrid quadrupole time-of-flight mass spectrometer, a Q-TOF (Micromass), equipped with an on-line nanoelectrospray interface with an approximate flow rate of 250 nL/min. Injections were done with a dedicated micro/nano HPLC autosampler, the FAMOS (LC Packings). Digestion solutions were diluted five times in water-methanol-acetic acid (95:5:1, v/v/v), and trapped on the precolumn (MCA-300-05-C8; LC Packings) in water-methanol-acetic acid (95:5:1, v/v/v). Washing of the precolumn was done for 3 min to remove the buffers present in the digests. Subsequently, the trapped analytes were eluted with a steep gradient going from 70% B to 90% B in 10 min, with a flow of 250 nl/min (A: water-methanol-acetic acid (95:5:1, v/v/v); B: water-methanol-acetic acid (10:90:1, v/v/v)). This low elution rate allows for a few additional MS/MS experiments if necessary during the same elution. Mass spectra were recorded from mass 50-2000 Da every second. The resolution allows direct determination of the monoisotopic mass, also from multiple charged ions. The peaks in the mass spectrum were searched in the digested precursor peptide using the Biolynx/proteins software (Micromass). The intensity of the peaks in the mass spectra was used to establish the relative amounts of peptides generated by proteasome digestion.

Row | Processing C-term: generation by proteasome-mediated digestion of fragments containing the correct C-terminus | Intact Fragment: intact epitope found in digestion fragments | C-term. generation (generation of C-terminus of the epitope after 1 h digestion) | Intact in fragment (intact epitope found in digestion fragments after 1 h digestion) | Compound
1 | ++ ((++) fragments present for >5%) | + | ++ (abundant (++) present for >5%) | + | CC(C)C[C@H](NC(=O)[C@@H](NC(=O)CNC(=O)[C@H](CC(C)C)NC(=O)[C@@H]1CCCN1C(=O)[C@H](CC(C)C)NC(=O)[C@H](CS)NC(=O)[C@@H](NC(=O)[C@H](Cc1ccccc1)NC(=O)[C@@H]1CCCN1)[C@@H](C)O)C(C)C)C(=O)O
2 | - | - |  |  | CC(C)C[C@H](NC(=O)[C@@H](NC(=O)[C@@H]1CCCN1)[C@@H](C)O)C(=O)N[C@@H](C)C(=O)N[C@@H](CCCCN)C(=O)N[C@@H](Cc1ccccc1)C(=O)N[C@@H](CO)C(=O)N1CCC[C@H]1C(=O)N[C@@H](Cc1ccc(O)cc1)C(=O)O
3 | - | - |  |  | CC[C@H](C)[C@H](NC(=O)[C@H](CC(C)C)NC(=O)[C@@H](N)Cc1ccc(O)cc1)C(=O)N[C@@H](CCC(=O)O)C(=O)N[C@@H](CCCCN)C(=O)N[C@H](C(=O)N[C@@H](CCCCN)C(=O)N[C@@H](CCCNC(=N)N)C(=O)N[C@@H](CCCCN)C(=O)N[C@@H](CCCCN)C(=O)O)C(C)C
4 | - | - |  |  | CC[C@H](C)[C@H](NC(=O)[C@H](Cc1ccc(O)cc1)NC(=O)[C@@H](N)CCCNC(=N)N)C(=O)N[C@@H](CO)C(=O)N[C@@H](CCSC)C(=O)N[C@@H](CO)C(=O)N[C@H](C(=O)N[C@@H](Cc1c[nH]c2ccccc12)C(=O)N[C@H](C(=O)N[C@@H](CO)C(=O)O)[C@@H](C)O)C(C)C
5 | - | - |  |  | CC[C@H](C)[C@H](NC(=O)[C@H](C)N)C(=O)N[C@@H](C)C(=O)N[C@@H](C)C(=O)N[C@@H](CC(C)C)C(=O)N[C@@H](CCC(=O)O)C(=O)N[C@@H](CC(C)C)C(=O)N[C@@H](CC(C)C)C(=O)N1CCC[C@H]1C(=O)N[C@@H](CCCNC(=N)N)C(=O)O
6 | - | - |  |  | CC(C)C[C@H](NC(=O)[C@H](CCCNC(=N)N)NC(=O)[C@H](CCC(=O)O)NC(=O)[C@H](CC(C)C)NC(=O)[C@H](Cc1c[nH]cn1)NC(=O)[C@H](CC(C)C)NC(=O)[C@@H](N)[C@@H](C)O)C(=O)N[C@@H](C)C(=O)N[C@@H](Cc1ccc(O)cc1)C(=O)O
7 | - | - |  |  | CC[C@H](C)[C@H](NC(=O)[C@@H]1CCCN1C(=O)[C@@H](N)CCC(=O)O)C(=O)N[C@@H](CC(C)C)C(=O)N[C@@H](CS)C(=O)N1CCC[C@H]1C(=O)N[C@@H](CS)C(=O)N[C@@H](Cc1ccccc1)C(=O)N[C@@H](CCSC)C(=O)O (H-EPILCPCFM-OH)
8 | - | - |  |  | CC(C)C[C@H](NC(=O)[C@H](Cc1c[nH]cn1)NC(=O)[C@H](CCC(N)=O)NC(=O)[C@H](CC(C)C)NC(=O)[C@H](CC(C)C)NC(=O)[C@H](CO)NC(=O)[C@H](CCC(N)=O)NC(=O)[C@H](CC(C)C)NC(=O)[C@H](C)N)C(=O)O
9 | - | - |  |  | CC[C@H](C)[C@H](NC(=O)[C@H](CC(=O)O)NC(=O)[C@H](CCC(=O)O)NC(=O)[C@H](Cc1ccc(O)cc1)NC(=O)[C@@H](N)CO)C(=O)N[C@@H](Cc1c[nH]cn1)C(=O)NCC(=O)N[C@H](C(=O)N[C@@H](CC(C)C)C(=O)O)[C@@H](C)O
10 | - | - |  |  | CSCC[C@H](NC(=O)[C@H](CO)NC(=O)[C@@H]1CCCN1C(=O)[C@H](CCCNC(=N)N)NC(=O)CNC(=O)[C@H](CC(C)C)NC(=O)[C@H](CCC(=O)O)NC(=O)[C@H](CS)NC(=O)[C@H](CC(C)C)NC(=O)[C@@H](N)CC(C)C)C(=O)O

From patent publication US10450356B2, “PRAME derived peptides and immunogenic compositions comprising these” (Academisch Ziekenhuis Leiden H.O.D.N. LUMC, priority 2007, dated 2019)
